From patent US11897918B2, “Compositions and methods to increase production” (priority 2014, dated 2024)

How the values were obtained:
[1] = test system: influenza H3N2 strain IVR-165 (A/Victoria/361/2011); assay type: cell-based
B/Massachusetts/02/2012 = assay: Ambr 250 mL bioreactor, B strain; assay type: cell-based, influenza B
Protocol: FIG. 13 provides a graph showing HA yields in the B strain tested with BYF589 at concentrations as indicated.
FIG. 14 provides a graph showing HA yields in the B strain tested with AFZ077 at concentrations as indicated.
The results were confirmed using 3 different viruses (a high-, medium-, and poor-expressing strains). […] To confirm these findings in a larger-scale system, TD Ambr™ 250 mL bioreactors were employed. Both of the lead compounds (as well as DMSO alone as negative control, and, no compound/no DMSO as double-negative control) were tested with a high- and low-expressing strains to determine if the observed enhancement in the small-scale cultures can be reproduced in a larger-scale system. The following parameters were used: Spent DM134:Fresh PFM (1:3); Virus Strains were A/Victoria/361/2011 (IVR-165) and B/Massachusetts/02/2012; MOI was 10^−5 for A/Victoria IVR-165 and 10^−4 for B/Massachusetts; ICD: 2.0e6-3.0e6 cells/mL; N-1 Process: 1B (no Medium Exchange); and, Harvest Time was 65-72 hours post-infection. HA yields were measured by two methods: RP-HPLC and HA-ELISA. […] Note that the error bars represent one standard deviation from the mean, to illustrate variability of the HA-ELISA assay between assay repeats.

HEK293 Freestyle cells = assay: Recombinant protein expression in HEK293 Freestyle cells; assay type: cell-based; details: 70 nM; proteins with a yield of about ≤4 mg/L
Protocol: To further evaluate general utility of the compounds identified in the HA yield studies, one of the lead compounds, BYF589, was tested on recombinant protein expression using heterologous cells. In particular, proteins that had been previously found to be difficult to express in HEK293 cells were included, which are referred to as “low yielders.” In a typical optimized system, low yielders are defined as having a yield of 5 mg/L or less. About 20 constructs of target proteins with typical yields of between 2-10 mg/L were selected for the experiments. They are secreted mammalian proteins, which are truncated versions of full length counterparts. Each construct (in a variant of the pRS5a vector) contained at least one tag (e.g., at least a C-terminal FlagHis tag—in addition, many are fused N- or C-terminally to mouse IgG1 Fc). Roughly equal numbers of each tag type were selected to reduce bias.
All targets with yields <1 mg/L or >10 mg/L were removed. Next, targets were sorted by tag type. Finally, if it looked like a particular molecular weight range was heavily represented, a few “duplicates” were culled. Then, to select samples, first 6-7 from each tag type were included without additional selection criteria. Resulting target list is reproduced below.
The BYF589 compound was dissolved in DMSO to finally provide a 70 μM working stock (1000×). […]

## O=C(O)C[C@H](O)C[C@H](O)/C=C/c1c(C2CC2)nc2ccccc2c1-c1ccc(F)cc1 [Compound G, (3R, 5S, 6E)-7-[2-cyclopropyl-4-(4-fluorophenyl)-quinolin-3-yl)-3,5-dihydroxyhept-6-enoic acid]
[1]
  HA yield before the decrease (earlier addition): about 20 μg/ml
  HA yield, compound added 2 hours post infection: about 5 μg/ml
B/Massachusetts/02/2012; 5 nM vs 50 nM vs 500 nM
  effectiveness in increasing protein production yield by concentration: more effective in increasing protein production yield at 5 nM than at 50 nM, which in turn was more effective than at 500 nM
B/Massachusetts/02/2012; 0.005 μM, HA-HPLC
  increase in yield over no DMSO control: about 37%
HEK293 Freestyle cells
  increase in recombinant protein yield: ≥ 1.5 fold
